Test results reported in ChEMBL document CHEMBL2016501, “Design, synthesis, and biological activity of novel 1,4-disubstituted piperidine/piperazine derivatives as CCR5 antagonist-based HIV-1 entry inhibitors” (Bioorg Med Chem Lett, 2012).

Columns and labels:
[1] = system: Human immunodeficiency virus 1; experiment: Antiviral against R5 tropic HIV1 Bal infected in human CEMx174 5.25M7 cells assessed as inhibition of viral replication; assay type: functional, organism-based; conditions: Human immunodeficiency virus 1, Bal
[2] = Selectivity ratio of CC50 for human CEMx174 5.25M7 cells to IC50 for HIV1 Bal infected in CEMx174 5.25M7 cells; assay type: ADME, cell-based; conditions: read-out: Ratio CC50/IC50
[3] = Cytotoxicity against human CEMx174 5.25M7; conditions: CEMx174 5.25M7 cells
[4] = Oral bioavailability in Sprague-Dawley rat at 5 mg/kg; assay type: ADME, organism-based; conditions: in vivo
hERG = experiment: Selectivity ratio of IC50 for human Erg to IC50 for HIV1 Bal infected in human CEMx174 5.25 cells; assay type: ADME, cell-based; conditions: HIV1 Bal infected CEMx174 5.25 cells, read-out: Ratio IC50
[5] = AUC (0 to 12 hrs) in Sprague-Dawley rat at 5 mg/kg, po; assay type: ADME, organism-based; design: time < 12 hr, dose 5 mg/kg, route oral; conditions: plasma
[6] = Solubility of the compound in 10 mM phosphate sodium buffer at pH 7.4 at 25 degC; assay type: physicochemical
[7] = Terminal half life in Sprague-Dawley rat at 5 mg/kg, po; assay type: ADME, organism-based; design: dose 5 mg/kg, route oral; conditions: in vivo, read-out: beta t1/2 (converted)
[8] = AUC (0 to 12 hrs) in Sprague-Dawley rat at 1 mg/kg, iv; assay type: ADME, organism-based; design: time < 12 hr, dose 1 mg/kg, route intravenous; conditions: plasma
[9] = target: Voltage-gated inwardly rectifying potassium channel KCNH2 (Homo sapiens, UniProt Q12809); experiment: Inhibition of human Erg expressed in HEK293 cells by whole cell patch clamp assay; assay type: cell-based
[10] = Terminal half life in Sprague-Dawley rat at 1 mg/kg, iv; assay type: ADME, organism-based; design: dose 1 mg/kg, route intravenous; conditions: in vivo, read-out: beta t1/2 (converted)
[11] = system: Human immunodeficiency virus 1; experiment: Antiviral activity against HIV1; assay type: functional, organism-based

Chain of Voltage-gated inwardly rectifying potassium channel KCNH2 (Q12809 whole entry): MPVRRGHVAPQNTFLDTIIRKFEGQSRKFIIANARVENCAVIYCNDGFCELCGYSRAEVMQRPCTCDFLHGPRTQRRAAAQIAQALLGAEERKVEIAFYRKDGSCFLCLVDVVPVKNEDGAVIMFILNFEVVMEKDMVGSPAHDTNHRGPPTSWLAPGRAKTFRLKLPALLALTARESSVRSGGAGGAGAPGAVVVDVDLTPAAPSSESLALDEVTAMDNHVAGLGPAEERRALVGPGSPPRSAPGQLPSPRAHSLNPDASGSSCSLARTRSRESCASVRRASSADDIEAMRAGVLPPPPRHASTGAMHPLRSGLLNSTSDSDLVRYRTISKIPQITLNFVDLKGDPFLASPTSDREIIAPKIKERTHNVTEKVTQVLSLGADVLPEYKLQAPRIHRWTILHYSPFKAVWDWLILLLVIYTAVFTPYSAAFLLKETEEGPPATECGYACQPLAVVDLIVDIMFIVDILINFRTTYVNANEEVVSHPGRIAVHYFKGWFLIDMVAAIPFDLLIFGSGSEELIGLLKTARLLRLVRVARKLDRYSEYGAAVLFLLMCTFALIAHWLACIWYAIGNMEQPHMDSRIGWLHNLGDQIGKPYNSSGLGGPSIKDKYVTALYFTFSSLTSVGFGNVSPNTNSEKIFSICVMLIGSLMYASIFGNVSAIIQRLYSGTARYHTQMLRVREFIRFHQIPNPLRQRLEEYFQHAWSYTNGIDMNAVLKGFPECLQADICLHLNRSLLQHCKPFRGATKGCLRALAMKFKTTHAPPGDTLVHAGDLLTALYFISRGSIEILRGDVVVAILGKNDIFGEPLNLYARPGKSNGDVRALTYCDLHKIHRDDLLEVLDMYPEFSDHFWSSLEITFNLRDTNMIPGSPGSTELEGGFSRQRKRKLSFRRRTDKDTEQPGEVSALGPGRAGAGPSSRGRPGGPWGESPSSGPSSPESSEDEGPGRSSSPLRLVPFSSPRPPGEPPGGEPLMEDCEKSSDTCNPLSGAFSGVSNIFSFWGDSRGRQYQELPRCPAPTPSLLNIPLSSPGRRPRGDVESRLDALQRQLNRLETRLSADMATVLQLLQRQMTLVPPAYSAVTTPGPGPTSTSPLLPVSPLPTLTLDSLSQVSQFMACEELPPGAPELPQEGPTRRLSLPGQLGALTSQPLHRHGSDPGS

Row | SMILES | IC50 [1] [µM] | selectivity ratio [2] | CC50 [3] [µM] | also measured
1 | CC(=O)N1CCC(C(=O)N(CCCN2CCN(Cc3ccc(Cl)cc3)CC2)c2ccc(C)c(Cl)c2)CC1 | 0.00656 | 5730 | 37.6 | –
2 | CCN(Cc1ccccc1)C(=O)C1CCN(CCCN(C(=O)C2CCN(C(C)=O)CC2)c2ccc(C)c(Cl)c2)CC1 | 0.0599 | 1400 | 83.9 | –
3 | CC(=O)N1CCC(C(=O)N(CCCN2CCC(CNC(=O)c3cnccn3)CC2)c2ccc(C)c(Cl)c2)CC1 | 0.0203 | > 2580 | > 52.4 | –
4 | CC(=O)N1CCC(C(=O)N(CCCN2CCC(CNC(=O)c3ccsc3)CC2)c2ccc(C)c(Cl)c2)CC1 | 0.0875 | > 593 | > 51.9 | –
5 | CC(=O)N1CCC(C(=O)N(CCCN2CCC(CNc3cc(C)ccn3)CC2)c2ccc(C)c(Cl)c2)CC1 | 1.83 | 10 | 17.9 | –
6 | CC(=O)N1CCC(C(=O)N(CCCN2CCC(CNc3ncccn3)CC2)c2ccc(C)c(Cl)c2)CC1 | 0.0102 | > 5330 | > 55.1 | –
7 | CC(=O)N1CCC(C(=O)N(CCCN2CCC(Oc3ccccc3)CC2)c2ccc(C)c(Cl)c2)CC1 | 0.0523 | > 1080 | > 56.6 | –
8 | CC(=O)N1CCC(C(=O)N(CCCN2CCN(Cc3ccccc3)CC2)c2ccc(C)c(Cl)c2)CC1 | 0.0149 | 6800 | 101 | –
9 | CC(=O)N1CCC(C(=O)N(CCCN2CCN(C(=O)c3ccccc3)CC2)c2ccc(C)c(Cl)c2)CC1 | 0.147 | 663 | 97.8 | –
10 | CC(=O)N1CCC(C(=O)N(CCCN2CCN(Cc3cnc(Cl)s3)CC2)c2ccc(C)c(Cl)c2)CC1 | 0.0116 | > 4510 | > 52.4 | –
11 | CC(=O)N1CCC(C(=O)N(CCCN2CCN(Cc3ccncc3)CC2)c2ccc(C)c(Cl)c2)CC1 | 0.00907 | > 6150 | > 56.7 | –
12 | CC(=O)N1CCC(C(=O)N(CCCN2CCN(Cc3cccnc3)CC2)c2ccc(C)c(Cl)c2)CC1 | 0.0327 | > 1740 | > 56.7 | –
13 | CC(=O)N1CCC(C(=O)N(CCCN2CCN(Cc3ccc(Cl)nc3)CC2)c2ccc(C)c(Cl)c2)CC1 | 0.00363 | > 14500 | > 53.1 | –
14 | CC(=O)N1CCC(C(=O)N(CCCN2CCN(Cc3ccc(F)cc3)CC2)c2ccc(C)c(Cl)c2)CC1.Cl | 0.00617 | > 16200 | > 100 | bioavailability [4]: 56%; selectivity ratio (hERG): 295; AUC(0-t) at 12 h [5]: 587 ng·h/mL; solubility [6]: 25000 µg/mL; half-life [7]: 0.76 h; AUC(0-t) at 12 h [8]: 209 ng·h/mL; IC50 [9]: 1.82 µM; half-life [10]: 0.59 h
15 | CC(=O)N1CCC(C(=O)N(CCCN2CCN(Cc3ccc(S(C)(=O)=O)cc3)CC2)c2ccc(C)c(Cl)c2)CC1 | 0.00399 | > 12100 | > 49.3 | –
16 | CC(=O)N1CCC(C(=O)N(CCCN2CCN(c3ccccn3)CC2)c2ccc(C)c(Cl)c2)CC1 | 0.0563 | > 1040 | > 58.3 | –
17 | CC(=O)N1CCC(C(=O)N(CCCN2CCN(Cc3ccc(C#N)cc3)CC2)c2ccc(C)c(Cl)c2)CC1 | 0.00901 | > 11100 | > 100 | –
18 | CC(=O)N1CCC(C(=O)N(CCCN2CCN(Cc3ccc(C(F)(F)F)cc3)CC2)c2ccc(C)c(Cl)c2)CC1 | 0.00185 | 16500 | 30.5 | –
19 | CC(=O)N1CCC(C(=O)N(CCCN2CCC(Cc3ccc(C(N)=O)cc3)CC2)c2ccc(C)c(Cl)c2)CC1.Cl | 0.00248 | > 40300 | > 100 | bioavailability [4]: 1.4%; AUC(0-t) at 12 h [5]: 22.7 ng·h/mL; solubility [6]: 2000 µg/mL; half-life [7]: 4.25 h; AUC(0-t) at 12 h [8]: 328 ng·h/mL; half-life [10]: 2.25 h
20 | CCN(C(=O)Cc1ccccc1)C1CCN(CCCN(C(=O)C2CCN(C(C)=O)CC2)c2ccc(C)c(Cl)c2)CC1.Cl | 0.00523 | 6920 | 36.2 | solubility [6]: < 2000 µg/mL; EC50 [11]: 0.0025 µM
21 | CC(=O)N1CCC(C(=O)N(CCCN2CC3CN(C(=O)c4c(C)ncnc4C)CC3C2)c2ccc(C)c(Cl)c2)CC1 (configuration not stated) | – | – | – | EC50 [11]: 0.0027 µM
